Assay results as given in patent US8846933B2, “N-link hydroxamic acid derivatives useful as antibacterial agents” (Pfizer Inc., priority 2009, dated 2014).

Key:
[1] = test system: Pseudomonas aeruginosa UI-18: Wild-type (PA-7); assay: MIC determination (CLSI), strain PA-7; assay type: cell-based; conditions: strain PA-7; unit assumed
Outline: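 MIC determined by broth dilution per CLSI M7-A7 guidelines with M100-S18 interpretive standards. Test organism: wild-type Pseudomonas aeruginosa UI-18, designated PA-7.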

[2] = test system: Escherichia coli EC-1: VOGEL, mouse virulent; assay: MIC determination (CLSI), strain EC-1; assay type: cell-based; conditions: strain EC-1; unit assumed
Outline: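 The mouse-virulent VOGEL isolate of E. coli, EC-1, served as test organism. Minimum inhibitory concentration was measured by CLSI dilution methodology (M7-A7; M100-S18 standards).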

Row | SMILES | PA-7 (MIC) [1] | EC-1 (MIC) [2]
1 | CC(CCn1ccc(-c2ccc(OCCCn3cncn3)cc2Cl)cc1=O)(C(=O)NO)S(C)(=O)=O (stereo not drawn) [Example 291, 4-[4-{2-chloro-4-[3-(1H-1,2,4-triazol-1-yl)propoxy]phenyl}-2-oxopyridin-1(2H)-yl]-N-hydroxy-2-methyl-2-(methylsulfonyl)butanamide] | 16 µg/mL | 16 µg/mL
2 | CC(CCn1ccc(-c2ccc(OCCCn3cncn3)c(Cl)c2Cl)cc1=O)(C(=O)NO)S(C)(=O)=O (stereo not drawn) [Example 292, 4-[4-{2,3-dichloro-4-[3-(1H-1,2,4-triazol-1-yl)propoxy]phenyl}-2-oxopyridin-1(2H)-yl]-N-hydroxy-2-methyl-2-(methylsulfonyl)butanamide] | 16 µg/mL | 8 µg/mL
3 | Cc1cc(-c2ccn(CCC(C)(C(=O)NO)S(C)(=O)=O)c(=O)c2)ccc1OCCCn1cncn1 (stereo not drawn) [Example 293, N-hydroxy-2-methyl-2-(methylsulfonyl)-4-[4-{3-methyl-4-[3-(1H-1,2,4-triazol-1-yl)propoxy]phenyl}-2-oxopyridin-1(2H)-yl]butanamide] | 16 µg/mL | 4 µg/mL
4 | CCCC(CCn1ccc(-c2ccccc2)cc1=O)(C(=O)NO)S(C)(=O)=O (stereo not drawn) [Example 294] | > 64 µg/mL | > 64 µg/mL
5 | CC(CCn1ccc(-c2ccc(-c3cccnc3)cc2F)cc1=O)(C(=O)NO)S(C)(=O)=O (stereo not drawn) [Example 295, 4-[4-(2-fluoro-4-pyridin-3-ylphenyl)-2-oxopyridin-1(2H)-yl]-N-hydroxy-2-methyl-2-(methylsulfonyl)butanamide] | 8 µg/mL | 1 µg/mL
6 | CC(CCn1ccc(-c2c[nH]c3ccccc23)cc1=O)(C(=O)NO)S(C)(=O)=O (stereo not drawn) [Example 296, N-hydroxy-4-[4-(1H-indol-3-yl)-2-oxopyridin-1(2H)-yl]-2-methyl-2-(methylsulfonyl)butanamide] | 64 µg/mL | 64 µg/mL
7 | CC(CCn1ccc(-c2ccc(-c3cccnc3)c(F)c2)cc1=O)(C(=O)NO)S(C)(=O)=O (stereo not drawn) [Example 297, 4-[4-(3-fluoro-4-pyridin-3-ylphenyl)-2-oxopyridin-1(2H)-yl]-N-hydroxy-2-methyl-2-(methylsulfonyl)butanamide] | 2 µg/mL | 1 µg/mL
8 | CC(CCn1ccc(-c2ccc(-c3ccncc3)c(F)c2)cc1=O)(C(=O)NO)S(C)(=O)=O (stereo not drawn) [Example 298, 4-[4-(3-fluoro-4-pyridin-4-ylphenyl)-2-oxopyridin-1(2H)-yl]-N-hydroxy-2-methyl-2-(methylsulfonyl)butanamide] | 4 µg/mL | 0.5 µg/mL
9 | CC(CCn1ccc(-c2ccc3ccc(O)cc3c2)cc1=O)(C(=O)NO)S(C)(=O)=O (stereo not drawn) [Example 299, N-hydroxy-4-[4-(7-hydroxy-2-naphthyl)-2-oxopyridin-1(2H)-yl]-2-methyl-2-(methylsulfonyl)butanamide] | 4 µg/mL | 1 µg/mL
10 | Cc1ccc2cc(-c3ccn(CCC(C)(C(=O)NO)S(C)(=O)=O)c(=O)c3)ccc2n1 (stereo not drawn) [Example 300, N-hydroxy-2-methyl-4-[4-(2-methylquinolin-6-yl)-2-oxopyridin-1(2H)-yl]-2-(methylsulfonyl)butanamide] | 8 µg/mL | 4 µg/mL
11 | Cc1cnc2ccc(-c3ccn(CCC(C)(C(=O)NO)S(C)(=O)=O)c(=O)c3)cc2c1 (stereo not drawn) [Example 301, N-hydroxy-2-methyl-4-[4-(3-methylquinolin-6-yl)-2-oxopyridin-1(2H)-yl]-2-(methylsulfonyl)butanamide] | 16 µg/mL | 4 µg/mL
12 | Cc1ccnc2ccc(-c3ccn(CCC(C)(C(=O)NO)S(C)(=O)=O)c(=O)c3)cc12 (stereo not drawn) [Example 302, N-hydroxy-2-methyl-4-[4-(4-methylquinolin-6-yl)-2-oxopyridin-1(2H)-yl]-2-(methylsulfonyl)butanamide] | 16 µg/mL | 64 µg/mL
13 | C[C@@](CCn1ccc(-c2ccc(OCCN3CCC(O)CC3)c(Cl)c2Cl)cc1=O)(C(=O)NO)S(C)(=O)=O [Example 303, (2R)-4-[4-{2,3-dichloro-4-[2-(4-hydroxypiperidin-1-yl)ethoxy]phenyl}-2-oxopyridin-1(2H)-yl]-N-hydroxy-2-methyl-2-(methylsulfonyl)butanamide] | 16 µg/mL | 32 µg/mL
14 | C[C@@](CCn1ccc(-c2ccc(OCCN3CCOCC3)c(Cl)c2Cl)cc1=O)(C(=O)NO)S(C)(=O)=O [Example 304, (2R)-4-{4-[2,3-dichloro-4-(2-morpholin-4-ylethoxy)phenyl]-2-oxopyridin-1(2H)-yl}-N-hydroxy-2-methyl-2-(methylsulfonyl)butanamide] | 16 µg/mL | 4 µg/mL
15 | Cc1ccc2ccc(-c3ccn(CCC(C)(C(=O)NO)S(C)(=O)=O)c(=O)c3)cc2n1 (stereo not drawn) [Example 305, N-hydroxy-2-methyl-4-[4-(2-methylquinolin-7-yl)-2-oxopyridin-1(2H)-yl]-2-(methylsulfonyl)butanamide] | > 64 µg/mL | 16 µg/mL
16 | CC(CCn1ccc(-c2cc3ccncc3cc2F)cc1=O)(C(=O)NO)S(C)(=O)=O (stereo not drawn) [Example 306, 4-[4-(7-fluoroisoquinolin-6-yl)-2-oxopyridin-1(2H)-yl]-N-hydroxy-2-methyl-2-(methylsulfonyl)butanamide] | 4 µg/mL | 8 µg/mL
17 | CC(CCn1ccc(-c2cccc(OCCCO)c2F)cc1=O)(C(=O)NO)S(C)(=O)=O (stereo not drawn) [Example 307, 4-{4-[2-fluoro-3-(3-hydroxypropoxy)phenyl]-2-oxopyridin-1(2H)-yl}-N-hydroxy-2-methyl-2-(methylsulfonyl)butanamide] | 16 µg/mL | 16 µg/mL
18 | Cc1cnc2cc(-c3ccn(CCC(C)(C(=O)NO)S(C)(=O)=O)c(=O)c3)ccc2c1 (stereo not drawn) [Example 308, N-hydroxy-2-methyl-4-[4-(3-methylquinolin-7-yl)-2-oxopyridin-1(2H)-yl]-2-(methylsulfonyl)butanamide] | 4 µg/mL | 2 µg/mL
19 | CC(CCn1ccc(-c2ccc3cc(CO)ccc3c2)cc1=O)(C(=O)NO)S(C)(=O)=O (stereo not drawn) [Example 309, N-hydroxy-4-{4-[6-(hydroxymethyl)-2-naphthyl]-2-oxopyridin-1(2H)-yl}-2-methyl-2-(methylsulfonyl)butanamide] | 4 µg/mL | 1 µg/mL
20 | COc1ccc(-c2ccc(-c3ccn(CC[C@](C)(C(=O)NO)S(C)(=O)=O)c(=O)c3)cc2)cn1 [Example 310, (2R)-N-hydroxy-4-{4-[4-(6-methoxypyridin-3-yl)phenyl]-2-oxopyridin-1(2H)-yl}-2-methyl-2-(methylsulfonyl)butanamide] | 0.5 µg/mL | 0.125 µg/mL
21 | C[C@@](CCn1ccc(-c2ccc(OCC3CCN(C(=O)CO)CC3)cc2)cc1=O)(C(=O)NO)S(C)(=O)=O [Example 311, (2R)-4-[4-{4-[(1-glycoloylpiperidin-4-yl)methoxy]phenyl}-2-oxopyridin-1(2H)-yl]-N-hydroxy-2-methyl-2-(methylsulfonyl)butanamide] | 4 µg/mL | 1 µg/mL
22 | C[C@@](CCn1ccc(-c2ccc(OCCC3CCN(C(=O)CO)CC3)cc2)cc1=O)(C(=O)NO)S(C)(=O)=O [Example 312, (2R)-4-[4-{4-[2-(1-glycoloylpiperidin-4-yl)ethoxy]phenyl}-2-oxopyridin-1(2H)-yl]-N-hydroxy-2-methyl-2-(methylsulfonyl)butanamide] | 4 µg/mL | 0.5 µg/mL
23 | C[C@@](CCn1ccc(-c2ccc(OCCCC3CCN(C(=O)CO)CC3)cc2)cc1=O)(C(=O)NO)S(C)(=O)=O [Example 313, (2R)-4-[4-{4-[3-(1-glycoloylpiperidin-4-yl)propoxy]phenyl}-2-oxopyridin-1(2H)-yl]-N-hydroxy-2-methyl-2-(methylsulfonyl)butanamide] | 4 µg/mL | 0.5 µg/mL
24 | C[C@@](CCn1ccc(-c2ccc3cc(OCCO)ccc3c2)cc1=O)(C(=O)NO)S(C)(=O)=O [Example 314, (2R)-N-hydroxy-4-{4-[6-(2-hydroxyethoxy)-2-naphthyl]-2-oxopyridin-1(2H)-yl}-2-methyl-2-(methylsulfonyl)butanamide] | 1 µg/mL | 0.5 µg/mL
25 | C[C@@](CCn1ccc(-c2ccc3cc(CO)ccc3c2)cc1=O)(C(=O)NO)S(C)(=O)=O [Example 315, (2R)-N-hydroxy-4-{4-[6-(hydroxymethyl)-2-naphthyl]-2-oxopyridin-1(2H)-yl}-2-methyl-2-(methylsulfonyl)butanamide] | 1 µg/mL | 0.5 µg/mL
26 | C[C@@](CCn1ccc(-c2ccc3ncc(F)cc3c2)cc1=O)(C(=O)NO)S(C)(=O)=O [Example 316, (2R)-4-[4-(3-fluoroquinolin-6-yl)-2-oxopyridin-1(2H)-yl]-N-hydroxy-2-methyl-2-(methylsulfonyl)butanamide] | 2 µg/mL | 4 µg/mL
27 | COc1ccc(-c2ccn(CC[C@](C)(C(=O)NO)S(C)(=O)=O)c(=O)c2)cc1F [Example 317, (2R)-4-[4-(3-fluoro-4-methoxyphenyl)-2-oxopyridin-1(2H)-yl]-N-hydroxy-2-methyl-2-(methylsulfonyl)butanamide] | 1 µg/mL | 2 µg/mL
28 | C[C@@](CCn1ccc(-c2ccc(OC[C@H]3CC[C@H](O)CC3)c(F)c2)cc1=O)(C(=O)NO)S(C)(=O)=O [Example 318, (2R)-4-[4-{3-fluoro-4-[(trans-4-hydroxycyclohexyl)methoxy]phenyl}-2-oxopyridin-1(2H)-yl]-N-hydroxy-2-methyl-2-(methylsulfonyl)butanamide] | 1 µg/mL | 0.25 µg/mL
29 | C[C@@](CCn1ccc(-c2ccc(SCCCCO)cc2)cc1=O)(C(=O)NO)S(C)(=O)=O [Example 319] | 1 µg/mL | 0.25 µg/mL
30 | CC(=O)c1ccc(-c2ccn(CC[C@](C)(C(=O)NO)S(C)(=O)=O)c(=O)c2)c(F)c1 [Example 320] | 2 µg/mL | 1 µg/mL
